In article PMC10382584, “Macrocyclization of linear molecules by deep learning to facilitate macrocyclic drug candidates discovery” (Nature Communications, 2023):

Columns and labels:
Experiment in all cases: biochemical
Parameters in all cases: DiscoveRx KINOMEscan competition binding, percent of DMSO control signal at 100 nM
Details in all cases: read-out: Fig. 4a / Percent Control / Compound 1; percent of DMSO control, competition binding
p38-delta = molecular target: T1, p38-delta (Homo sapiens, UniProt O15264)
T1 construct: gene MAPK13

IKK-beta = molecular target: T2, IKK-beta (Homo sapiens, UniProt O14920)
T2 construct: gene IKBKB
T2 sequence (O14920 whole entry): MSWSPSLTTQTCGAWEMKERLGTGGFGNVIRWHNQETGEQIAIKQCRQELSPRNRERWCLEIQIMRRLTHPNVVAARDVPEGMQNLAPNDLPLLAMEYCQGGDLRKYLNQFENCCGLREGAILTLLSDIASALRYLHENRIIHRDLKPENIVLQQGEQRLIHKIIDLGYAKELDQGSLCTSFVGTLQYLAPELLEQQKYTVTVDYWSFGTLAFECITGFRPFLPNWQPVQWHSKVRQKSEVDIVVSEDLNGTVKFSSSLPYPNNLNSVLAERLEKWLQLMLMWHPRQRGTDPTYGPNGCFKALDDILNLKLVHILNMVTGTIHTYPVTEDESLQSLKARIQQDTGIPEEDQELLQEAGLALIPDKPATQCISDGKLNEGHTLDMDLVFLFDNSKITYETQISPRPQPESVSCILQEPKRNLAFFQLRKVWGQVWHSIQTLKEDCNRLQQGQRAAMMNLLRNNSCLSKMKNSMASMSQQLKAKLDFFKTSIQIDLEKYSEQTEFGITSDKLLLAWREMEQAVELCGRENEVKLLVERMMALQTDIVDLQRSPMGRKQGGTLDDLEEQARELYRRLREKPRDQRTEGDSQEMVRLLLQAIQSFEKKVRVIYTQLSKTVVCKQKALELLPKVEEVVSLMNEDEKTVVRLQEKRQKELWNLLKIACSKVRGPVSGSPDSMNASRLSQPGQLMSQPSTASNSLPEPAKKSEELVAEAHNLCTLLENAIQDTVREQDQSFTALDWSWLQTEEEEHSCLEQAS

MAK = MAK (Homo sapiens, UniProt P20794)
AKT1 = AKT1 (Homo sapiens, UniProt P31749)
PIK3CA(H1047Y) = PIK3CA(H1047Y) (Homo sapiens, UniProt P42336, H1047Y)
PIK3CA(H1047Y), sequence (P42336 whole entry H1047Y): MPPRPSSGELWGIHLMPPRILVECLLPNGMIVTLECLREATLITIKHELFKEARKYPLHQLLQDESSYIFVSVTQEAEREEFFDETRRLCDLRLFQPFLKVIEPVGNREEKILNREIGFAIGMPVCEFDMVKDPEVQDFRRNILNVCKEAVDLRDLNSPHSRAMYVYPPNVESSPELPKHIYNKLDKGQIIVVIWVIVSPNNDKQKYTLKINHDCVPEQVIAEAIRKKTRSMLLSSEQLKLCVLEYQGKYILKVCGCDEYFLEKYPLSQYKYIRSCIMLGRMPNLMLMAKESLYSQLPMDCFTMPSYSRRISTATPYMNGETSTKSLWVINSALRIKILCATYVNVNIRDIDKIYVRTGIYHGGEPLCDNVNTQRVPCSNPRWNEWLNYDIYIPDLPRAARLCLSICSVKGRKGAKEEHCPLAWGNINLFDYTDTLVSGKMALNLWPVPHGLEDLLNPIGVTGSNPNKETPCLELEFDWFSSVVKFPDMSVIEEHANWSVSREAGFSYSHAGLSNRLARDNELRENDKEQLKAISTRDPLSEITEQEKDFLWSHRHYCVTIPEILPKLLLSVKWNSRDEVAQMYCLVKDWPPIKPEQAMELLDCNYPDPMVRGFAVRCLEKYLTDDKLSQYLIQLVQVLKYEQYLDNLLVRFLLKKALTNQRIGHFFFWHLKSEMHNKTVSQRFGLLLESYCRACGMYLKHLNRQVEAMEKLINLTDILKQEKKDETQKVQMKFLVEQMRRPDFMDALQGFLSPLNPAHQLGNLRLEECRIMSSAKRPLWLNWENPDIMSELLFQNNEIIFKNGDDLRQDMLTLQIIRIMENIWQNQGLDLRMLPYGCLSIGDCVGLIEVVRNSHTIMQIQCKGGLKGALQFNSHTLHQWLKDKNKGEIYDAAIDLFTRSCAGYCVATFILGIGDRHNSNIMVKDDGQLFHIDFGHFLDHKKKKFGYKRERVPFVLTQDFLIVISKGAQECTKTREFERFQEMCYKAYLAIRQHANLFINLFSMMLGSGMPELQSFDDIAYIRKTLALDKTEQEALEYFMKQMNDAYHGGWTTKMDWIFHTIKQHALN

PKN2 = PKN2 (Homo sapiens, UniProt Q16513)
SNRK = SNRK (Homo sapiens, UniProt Q9NRH2)
SNRK, sequence (Q9NRH2 whole entry): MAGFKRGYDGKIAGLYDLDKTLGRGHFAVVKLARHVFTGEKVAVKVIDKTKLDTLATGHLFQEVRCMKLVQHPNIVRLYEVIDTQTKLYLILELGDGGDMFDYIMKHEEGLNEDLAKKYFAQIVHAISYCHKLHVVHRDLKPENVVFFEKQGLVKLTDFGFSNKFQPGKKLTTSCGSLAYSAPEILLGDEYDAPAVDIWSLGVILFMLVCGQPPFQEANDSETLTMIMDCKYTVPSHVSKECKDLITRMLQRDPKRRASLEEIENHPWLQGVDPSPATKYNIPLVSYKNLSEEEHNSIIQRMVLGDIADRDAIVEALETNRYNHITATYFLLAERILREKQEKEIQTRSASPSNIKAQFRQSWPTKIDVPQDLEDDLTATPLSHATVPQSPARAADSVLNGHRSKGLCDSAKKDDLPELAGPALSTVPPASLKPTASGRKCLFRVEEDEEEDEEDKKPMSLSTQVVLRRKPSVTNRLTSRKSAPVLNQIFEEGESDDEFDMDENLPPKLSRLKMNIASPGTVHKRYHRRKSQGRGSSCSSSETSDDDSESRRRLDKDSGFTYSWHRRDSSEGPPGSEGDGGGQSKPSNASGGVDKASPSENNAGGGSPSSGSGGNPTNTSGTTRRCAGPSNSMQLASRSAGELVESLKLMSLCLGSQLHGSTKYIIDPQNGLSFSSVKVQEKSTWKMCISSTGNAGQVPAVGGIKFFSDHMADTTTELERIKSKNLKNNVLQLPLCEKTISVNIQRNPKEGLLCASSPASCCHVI

FLT4 = FLT4 (Homo sapiens, UniProt P35916)
CDKL2 = CDKL2 (Homo sapiens, UniProt Q92772)
CDKL2, sequence (Q92772 whole entry): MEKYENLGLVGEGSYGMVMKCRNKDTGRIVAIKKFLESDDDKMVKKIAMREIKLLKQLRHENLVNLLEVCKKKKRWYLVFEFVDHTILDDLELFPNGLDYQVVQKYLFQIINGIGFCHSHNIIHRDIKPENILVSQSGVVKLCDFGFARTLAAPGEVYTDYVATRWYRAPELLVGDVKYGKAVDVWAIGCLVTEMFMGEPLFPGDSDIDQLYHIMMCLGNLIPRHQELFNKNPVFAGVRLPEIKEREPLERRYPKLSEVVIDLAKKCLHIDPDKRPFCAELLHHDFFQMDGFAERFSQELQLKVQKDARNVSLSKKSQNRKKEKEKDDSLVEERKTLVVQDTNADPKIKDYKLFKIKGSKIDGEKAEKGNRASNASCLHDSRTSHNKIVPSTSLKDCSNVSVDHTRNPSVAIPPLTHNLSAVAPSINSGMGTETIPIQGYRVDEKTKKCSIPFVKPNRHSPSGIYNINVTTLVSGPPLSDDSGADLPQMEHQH

YANK2 = molecular target: T3, YANK2 (Homo sapiens, UniProt Q9NY57)
T3 construct: gene STK32B

KIT(V559D) = KIT(V559D) (Homo sapiens, UniProt P10721, V559D)
[1] = molecular target: T4, JAK3(JH1domain-catalytic) (Homo sapiens, UniProt P52333)
T4 construct: JH1domain-catalytic
T4 sequence (P52333 whole entry): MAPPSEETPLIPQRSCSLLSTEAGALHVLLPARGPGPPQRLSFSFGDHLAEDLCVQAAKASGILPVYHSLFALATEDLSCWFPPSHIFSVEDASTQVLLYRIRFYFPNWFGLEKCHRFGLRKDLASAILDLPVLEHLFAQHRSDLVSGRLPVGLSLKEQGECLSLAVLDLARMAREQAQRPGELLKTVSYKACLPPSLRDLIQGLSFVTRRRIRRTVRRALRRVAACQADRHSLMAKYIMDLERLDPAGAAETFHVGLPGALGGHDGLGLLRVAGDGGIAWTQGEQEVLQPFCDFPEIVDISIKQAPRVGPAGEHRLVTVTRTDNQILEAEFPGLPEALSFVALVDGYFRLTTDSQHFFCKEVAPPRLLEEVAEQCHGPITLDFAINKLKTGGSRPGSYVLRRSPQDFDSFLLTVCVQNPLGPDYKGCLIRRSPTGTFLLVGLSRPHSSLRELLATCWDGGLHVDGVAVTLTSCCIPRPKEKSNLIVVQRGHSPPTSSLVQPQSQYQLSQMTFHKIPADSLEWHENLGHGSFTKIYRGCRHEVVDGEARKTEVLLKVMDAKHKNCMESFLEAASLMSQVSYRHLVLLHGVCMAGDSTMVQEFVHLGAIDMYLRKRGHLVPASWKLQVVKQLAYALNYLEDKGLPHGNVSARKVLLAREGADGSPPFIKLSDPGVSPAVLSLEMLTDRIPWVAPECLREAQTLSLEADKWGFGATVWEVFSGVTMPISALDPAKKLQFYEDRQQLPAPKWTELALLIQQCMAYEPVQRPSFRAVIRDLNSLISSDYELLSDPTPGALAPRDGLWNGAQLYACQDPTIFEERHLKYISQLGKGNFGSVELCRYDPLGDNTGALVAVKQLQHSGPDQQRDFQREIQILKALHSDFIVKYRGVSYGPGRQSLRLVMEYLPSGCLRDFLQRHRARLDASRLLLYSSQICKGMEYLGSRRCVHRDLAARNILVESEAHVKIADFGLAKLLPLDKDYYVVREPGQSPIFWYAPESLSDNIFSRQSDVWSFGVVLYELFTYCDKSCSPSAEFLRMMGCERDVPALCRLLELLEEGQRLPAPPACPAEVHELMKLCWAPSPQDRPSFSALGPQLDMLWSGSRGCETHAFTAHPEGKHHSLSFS

DCAMKL1 = molecular target: T5, DCAMKL1 (Homo sapiens, UniProt O15075)
T5 construct: gene DCLK1
T5 sequence (O15075 whole entry): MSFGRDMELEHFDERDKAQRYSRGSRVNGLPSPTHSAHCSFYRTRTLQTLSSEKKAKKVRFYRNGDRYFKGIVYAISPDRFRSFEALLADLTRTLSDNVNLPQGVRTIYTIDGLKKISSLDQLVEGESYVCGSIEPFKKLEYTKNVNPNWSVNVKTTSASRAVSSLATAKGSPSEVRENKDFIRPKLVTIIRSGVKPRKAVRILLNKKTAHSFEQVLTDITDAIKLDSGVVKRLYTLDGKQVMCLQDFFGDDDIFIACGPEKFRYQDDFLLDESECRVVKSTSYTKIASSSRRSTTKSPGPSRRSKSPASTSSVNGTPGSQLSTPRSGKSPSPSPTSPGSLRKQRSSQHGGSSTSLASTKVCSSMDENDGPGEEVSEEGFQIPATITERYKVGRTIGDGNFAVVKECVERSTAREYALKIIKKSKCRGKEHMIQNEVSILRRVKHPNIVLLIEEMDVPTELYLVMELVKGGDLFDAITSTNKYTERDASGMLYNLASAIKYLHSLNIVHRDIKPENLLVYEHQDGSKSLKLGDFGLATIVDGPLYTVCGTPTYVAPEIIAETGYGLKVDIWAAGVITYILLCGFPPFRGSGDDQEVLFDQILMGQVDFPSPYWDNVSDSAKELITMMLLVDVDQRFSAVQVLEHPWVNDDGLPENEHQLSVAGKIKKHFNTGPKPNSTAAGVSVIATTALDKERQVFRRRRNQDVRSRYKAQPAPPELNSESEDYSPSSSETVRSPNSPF

GRK1 = GRK1 (Homo sapiens, UniProt Q15835)
WEE2 = WEE2 (Homo sapiens, UniProt P0C1S8)
KIT-autoinhibited = KIT-autoinhibited (Homo sapiens, UniProt P10721)
IGF1R = IGF1R (Homo sapiens, UniProt P08069)
PAK7 = molecular target: T6, PAK7 (Homo sapiens, UniProt Q9P286)
T6 construct: gene PAK5

ABL1-nonphosphorylated = molecular target: T7, ABL1-nonphosphorylated (Homo sapiens, UniProt P00519)
T7 construct: nonphosphorylated

MUSK = MUSK (Homo sapiens, UniProt O15146)
GRK3 = GRK3 (Homo sapiens, UniProt P35626)
NEK5 = NEK5 (Homo sapiens, UniProt Q6P3R8)
MERTK = MERTK (Homo sapiens, UniProt Q12866)
NEK4 = NEK4 (Homo sapiens, UniProt P51957)
HPK1 = molecular target: T8, HPK1 (Homo sapiens, UniProt Q92918)
T8 construct: gene MAP4K1
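Also: KINOMEscan kinase panel binding assay, signal normalized between DMSO as 100% and a positive control compound as 0%.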

Question: Which remaining binding at 0.1 µM (p38-delta) does the source give for Cc1cnc2nc1Nc1cccc(c1)COCc1cc(ccc1OCCN1CCCC1)N2 [Compound 1] here?
Answer: The remaining binding at 0.1 µM was 100%.

Question: What about the remaining binding at 0.1 µM (IKK-beta) of the same molecule?
Answer: Its remaining binding at 0.1 µM is 97%.

Question: And the remaining binding at 0.1 µM (MAK)?
Answer: The remaining binding at 0.1 µM was 100%.

Question: And the remaining binding at 0.1 µM (AKT1)?
Answer: The remaining binding at 0.1 µM was 100%.

Question: And the remaining binding at 0.1 µM (PIK3CA(H1047Y))?
Answer: The remaining binding at 0.1 µM was 91%.

Question: What about the remaining binding at 0.1 µM (PKN2) of the same molecule?
Answer: Its remaining binding at 0.1 µM is 100%.

Question: And the remaining binding at 0.1 µM (SNRK)?
Answer: Its remaining binding at 0.1 µM is 78%.

Question: What about the remaining binding at 0.1 µM (FLT4) of the same molecule?
Answer: Its remaining binding at 0.1 µM is 85%.

Question: What about the remaining binding at 0.1 µM (CDKL2) of the same molecule?
Answer: Its remaining binding at 0.1 µM is 95%.

Question: What about the remaining binding at 0.1 µM (YANK2) of the same molecule?
Answer: The remaining binding at 0.1 µM was 95%.

Question: What about the remaining binding at 0.1 µM (KIT(V559D)) of the same molecule?
Answer: The remaining binding at 0.1 µM was 51%.

Question: What about the remaining binding at 0.1 µM [1] of the same molecule?
Answer: The remaining binding at 0.1 µM was 12%.

Question: And the remaining binding at 0.1 µM (DCAMKL1)?
Answer: Its remaining binding at 0.1 µM is 90%.

Question: And the remaining binding at 0.1 µM (GRK1)?
Answer: The remaining binding at 0.1 µM was 77%.

Question: And the remaining binding at 0.1 µM (WEE2)?
Answer: The remaining binding at 0.1 µM was 78%.

Question: What about the remaining binding at 0.1 µM (KIT-autoinhibited) of the same molecule?
Answer: The remaining binding at 0.1 µM was 86%.

Question: And the remaining binding at 0.1 µM (IGF1R)?
Answer: The remaining binding at 0.1 µM was 91%.

Question: What about the remaining binding at 0.1 µM (PAK7) of the same molecule?
Answer: The remaining binding at 0.1 µM was 84%.

Question: And the remaining binding at 0.1 µM (ABL1-nonphosphorylated)?
Answer: The remaining binding at 0.1 µM was 55%.

Question: And the remaining binding at 0.1 µM (MUSK)?
Answer: The remaining binding at 0.1 µM was 90%.

Question: And the remaining binding at 0.1 µM (GRK3)?
Answer: Its remaining binding at 0.1 µM is 72%.

Question: And the remaining binding at 0.1 µM (NEK5)?
Answer: The remaining binding at 0.1 µM was 93%.

Question: What about the remaining binding at 0.1 µM (MERTK) of the same molecule?
Answer: Its remaining binding at 0.1 µM is 81%.

Question: And the remaining binding at 0.1 µM (NEK4)?
Answer: Its remaining binding at 0.1 µM is 79%.

Question: And the remaining binding at 0.1 µM (HPK1)?
Answer: Its remaining binding at 0.1 µM is 72%.
